Laboratory results as given in PMC8805583, “Discovery of Herbacetin as a Novel SGK1 Inhibitor to Alleviate Myocardial Hypertrophy” (Advanced Science, 2021).

Assays:
[1] = tested on: SGK1(S422D)-transfected primary cardiomyocytes; test: S422D SGK1-transfected primary cardiac myocytes (western blot, confocal microscopy); assay type: cell-based, rat
Description: Figure 5 HBT blocks induction of cardiac hypertrophic responses and the SGK1/FoxO1 signaling pathway. A) Cardiomyocytes were treated with 50 µmol PE in the presence or absence of Ext.R (50 µg mL^−1) or HBT (50 µmol) for 48 h. Cardiomyocytes were identified by cytoskeleton staining through the binding of phalloidin to F‐actin (green). Images were acquired using an ImageXpress Micro Confocal High‐Content Imaging System (Molecular Devices), with a 40 × PlanFluor objective. Relative cell area was quantified by the analysis module of […] High‐Content Image and Analysis Software (Molecular Devices). Control group (Ctrl), PE group, PE plus Ext.R group (Ext.R), and PE plus HBT group (HBT), n = 3 independent experiments, Scale bar, 50 µm. B,C) Quantification of relative ANP and BNP in cardiomyocytes treated with Ext.R or HBT, n = 3 independent experiments. D) Western blot analysis of related proteins in PE‐treated cardiomyocytes, n = 3–4 independent experiments. E) Co‐IP and western blot analysis of SGK1‐FoxO1 interaction in cardiomyocytes, n = 3 independent experiments. F) Western blot analysis of related proteins in nontransfected (control adenovirus) and in ^S422DSGK1‐transfected primary cardiac myocytes treated with DMSO as solvent control (^S422DSGK1‐transf. group) or HBT (50 µmol, ^S422DSGK1‐transf.+HBT group), n = 3 independent experiments. G) Confocal microscopy of nuclear translocation of FoxO1 in nontransfected (control adenovirus), ^S422DSGK1‐transfected cardiomyocytes treated with HBT (50 µmol) or DMSO as solvent control. Green signal represents FoxO1 and white arrow represents the translocation of FoxO1 to nuclei, n = 3 independent experiments, Scale bar, 25 µm. All data were analyzed using one‐way ANOVA and data were expressed as means ± SD, ##p < 0.01 versus Ctrl group, *p < 0.05, **p < 0.01 versus PE group or ^S422DSGK1‐transf. group.
In the present study, we studied HBT's effect on protein binding between SGK1 and FoxO1 by coimmunoprecipitation (Figure 5E). […] Nevertheless, as previously reported,^[ [30] ^] […] Supportively, after transfection with the SGK1(S422D) plasmid, we consistently detected increased cytoplasmic signal of FoxO1 compared to nontransfected cells in which the majority of FoxO1 signal was distributed in the nucleus.
SGK1 mutant plasmids and adenovirus were constructed by Vigene Bioscience. All the transfection assays were performed using Lipofectamine 2000 according to the manufacturer's protocol. Adenovirus (Ad‐^S422DSGK1) was diluted in DMEM and administered at a dose of 100 MOI in primary cardiomyocytes.

rat cardiomyocytes = test: ROS (DCFH-DA) and Ca2+ (Fluo-4 AM) detection in PE-stimulated cardiomyocytes; assay type: cell-based
From the text: Elevated cytoplasmic calcium was also observed in PE‐stimulated rat cardiomyocytes after Fluo‐4 AM staining. […] Since the channel subunit Orai1 and stromal interaction molecule 1 (STIM1) are known to participate in the orchestration of Ca^2+ entry into cells and are regulated by multiple kinases including SGK1,^[ [33] ^] we examined if HBT regulates their activities. […] Orai1 may be regulated by Nedd4‐like E3 ubiquitin protein ligase (Nedd4l) mediated degradation or the transcription factor nuclear factor‐κB (NF‐κB) dependent transcription, so we detected the effects of HBT on SGK1 downstream proteins. […] Therefore, HBT may also attenuate cardiomyocyte hypertrophy by reducing cytoplasmic calcium level.
Fluo-4 AM were obtained from Beyotime. SGK1 antibody and GAPDH antibody were obtained from Beyotime. FoxO1, Phospho-FoxO1 (Ser256), p44/42 MAPK (Erk1/2), […]
p65, Phospho-GSK-3β (Ser9), GSK-3β, Phospho-NDRG1 (Thr346), NDRG1, Phospho-NEDD4L (Ser342), NEDD4L, HO-1, Nrf2 and MnSOD antibody were obtained from Cell Signaling. Phospho-SGK1(S422) antibody was obtained from Affinity. Orai1, STIM1, ACTA1 and FLAG antibody were obtained from Proteintech. BNP antibody was obtained from Abcam. ANP antibody was obtained from Santa Cruz Biotechnology. Myosin antibody was obtained from Sigma-Aldrich. Reference compounds were obtained from Shanghai Yuanye Biotechnology. Lipofectamine 2000 transfection reagent was purchased from Invitrogen. Protein A/G agarose was purchased from Beaver Biotechnology.
Phenylephrine (PE) was obtained from Aladdin. Deionized water was prepared with an Elga PURELAB flex system (ELGA LabWater, UK). […]
Micro® Confocal High-Content Imaging System (Molecular Devices). […]
BSA for 1 h, the cells were incubated overnight at 4 °C with rabbit anti-FoxO1 antibody and then with goat anti-rabbit AlexaFluor 488–conjugated antibody for 1 h at room temperature.
Nuclei were stained with Hoechst. Images were acquired using a high-resolution laser confocal microscope (Leica) using an oil immersion A-Plan ×63 objective.
3. ROS and Ca2+ Detection
ROS and Ca2+ levels were detected using DCFH-DA and Fluo-4 AM reagent (Beyotime) respectively according to the manufacturer’s instructions. After incubated for 48 hours, the supernatant was removed and cells were washed with PBS for three times. 100 μL DCFH-DA […]
or Fluo-4 AM working solution was added to each well and incubated at 37℃ for 20 minutes.
Then the cells were washed with PBS for 3 times and images were acquired using an ImageXpress Micro® Confocal High-Content Imaging System (Molecular Devices). The mean fluorescence intensity of cells positive for DCFH-DA or Fluo-4 AM staining was […]
4. Histology and Immunohistochemistry (IHC) […]
(Sigma) according to the manufacturer’s protocol. […]

SMILES: O=c1c(O)c(-c2ccc(O)cc2)oc2c(O)c(O)cc(O)c12 [HBT, herbacetin]
- expression of STIM1 ([1]; HBT 50 µmol): moderately inhibited
- FoxO1 phosphorylation ([1]; SGK1(S422D) expression, HBT 50 µmol): reverse the alternation
- FoxO1 subcellular localization ([1]; SGK1(S422D) transfection, HBT 50 µmol, confocal microscopy): restrain FoxO1 in the nucleus
- level of Orai1 ([1]; constitutively expressed SGK1, HBT 50 µmol): significantly inhibited
- phosphorylation of NDRG1 ([1]; continuously-activated form of SGK1, HBT 50 μmol): reduce the phosphorylation
- cytoplasmic calcium accumulation, Fluo-4 AM staining (rat cardiomyocytes; PE stimulation, cotreatment): effectively blocked
- free radicals (ROS), DCFH-DA staining (rat cardiomyocytes; PE stimulation, cotreatment): greatly inhibited
- MnSOD expression (rat cardiomyocytes; PE, western blot): restored
- phosphorylation level of Erk (rat cardiomyocytes; PE, western blot): downregulated
